Experimental findings from patent US8962842B2, “2-pyridone antimicrobial compositions” (priority 2010, dated 2015) are described below.

Where two headings read alike, the source gives them in different places. Where only a bound is given, the exact number is not on record here.

The MIC is the least concentration at which growth counts as inhibited.

Assay [1] deals with Burkholderia cepacia (5 strains). The assay can be described thus: MIC range, broader panel of Quotient Bioresearch strains (Table 4). It counts as cell-based.
Assay [2] has as its system Streptococcus pyogenes (4 strains). The assay can be described thus: MIC range, broader panel of Quotient Bioresearch strains (Table 3).

As to `Cc1c(-c2ccc3[nH]ncc3c2)ccn2c(=O)c(C(=O)[O-])cc(C3CC3)c12.[K+]` [Example 23 K salt, potassium 1-cyclopropyl-8-(1H-indazol-5-yl)-9-methyl-4-oxo-4H-quinolizine-3-carboxylate], the MIC was 0.25 µg/mL in assay [1] (read-out: MIC Range High, Burkholderia cepacia (5 strains)); not above 0.015 µg/mL in assay [1] (read-out: MIC Range Low, Burkholderia cepacia (5 strains)); 0.03 µg/mL in assay [2] (read-out: MIC Range High, Streptococcus pyogenes (4 strains)); not above 0.015 µg/mL in assay [2] (read-out: MIC Range Low, Streptococcus pyogenes (4 strains)). In addition, the MIC50 in assay [1] (read-out: MIC Range Median, Burkholderia cepacia (5 strains)) was 0.06 µg/mL; in assay [2] (read-out: MIC Range Median, Streptococcus pyogenes (4 strains)), 0.03 µg/mL.
